Assay results from article PMC5839409, “Targeting intracellular B2 receptors using novel cell-penetrating antagonists to arrest growth and induce apoptosis in human triple-negative breast cancer” (Oncotarget, 2018).

How the values were obtained:
MDA-MB-231 cells [1] = test: Anchorage-dependent clonogenic assay; assay type: cell-based, human; conditions: 1 to 100 µM (FR173657 up to 25 µM), 10-14 days
Description: MDA-MB-231 cells were plated at 200 cells/well in a six-well dish in 2 ml DMEM medium containing 10% FBS. […] After 10 to 14 days, colonies were fixed and stained with 0.5% methylene blue in 50% ethanol. Excess of staining solution was removed carefully with tap water and the plates were dried overnight. Colony counting and densitometric analyses (to measure total colony numbers and surface areas) were performed using the Image Pro Plus 5.1 software.

MDA-MB-231 cells [2] = test: Drug-drug synergy experiments (MTT, combination index); assay type: cell-based, human; conditions: IC25 ratios, 72h, CalcuSyn
Description: Interactions (synergy, additive, antagonistic activities) between CP-B2RAs (FR173657 and NG68) and chemotherapeutic drugs (doxorubicin and paclitaxel) were evaluated using MTT standard assays. Twenty-four hours after seeding, cells were treated with CP-B2RAs, the other testing drug, or in combination. For combination testing, CP-B2RAs or the other testing drugs were added to plate in triplicate wells in ratios of IC25 (IC25A: IC25B), and cells are incubated in drug-treated medium for 72h and cell viability determined by MTT. Synergy was determined by calculating combination index (CI) value with the formula CI = (CA,X / ICx,A) + (CB,X / ICx,B), where CA,X and CB,X are concentrations of drug A and drug B used in combination to achieve x% drug effect. ICx,A and ICx,B are concentrations for single agents to achieve the same effect. A CI of less than, equal to, and more than 1 indicates synergy, additivity, and antagonism, respectively.

MDA-MB-231 cells [3] = test: Annexin V/PI apoptosis and beta-galactosidase senescence assays; assay type: cell-based, human; conditions: Annexin V and active caspase-3 positivity 24h; β-galactosidase 72h
Description: The effect of B2RAs on cellular senescence was assessed using the Senescence β-Galactosidase Staining Kit (Cell Signaling). MDA-MB-231 cells were plated at 500 000 cells/well in 6-well plates, and serum-starved right before the beginning of treatments. Cells were treated with and without the B2RAs at the indicated concentrations for 72 h. At the end of treatment, surviving cells were fixed with 2% formaldehyde, 0.2% glutaraldehyde for 15 min at room temperature. Fixed cells were then washed and stained with fresh senescence-associated β-galactosidase stain solution (sodium phosphate buffer, pH 6.0, containing 1mg of X-gal (5-bromo-4-chloro-3-indolyl-β-d-galactopyranoside)/ml 40 mM citric acid, 5 mM potassium ferrocyanide, 5 mM potassium ferricyanide, 150 mM NaCl, 2 mM MgCl2) at 37°C. Staining was detected by light microscopy. As a positive control for senescence, we serum starved porcine cerebral microvascular endothelial cells (pCMVEC) (kindly provided by S Chemtob) for 48 h.
MDA-MB-231 and COS-1 cells were plated at 500,000/well in 6-well plates containing medium (10% FBS/DMEM), and allowed to adhere for about 18 h. On the next day, cells were serum-starved and then treated with and without the B2RAs at the indicated concentrations for 24 h. To assess induction of apoptosis due to treatment, we used the Annexin-V-FLUOS Staining kit (Roche) according to manufacturer’s specifications. Briefly, at the end of treatments, cells were harvested, rinsed and incubated in 100 µl of Annexin-V-FLUOS labeling solution (containing 2 µl of Annexin-V-Fluos reagent and 1 µl of PI (15 µg/ml)) for 15 min at room temperature. Cells were analyzed on a FACSCanto II flow cytometer (BD Biosciences). Early stage apoptosis was measured using annexin V-Fluos (RocheMolecular Biochemicals) in conjunction with PI (Sigma) to distinguish among early apoptosis and late apoptosis/necrosis. Bar diagram showing the distribution of early, late/necrotic cell populations.

MDA-MB-231 cells [4] = test: PI staining cell cycle analysis by flow cytometry; assay type: cell-based, human; conditions: 24 h treatment; HOE 140 up to 100 μM
Description: MDA-MB-231 were plated at 500,000/plate in 10 cm plates containing medium (10% FBS/DMEM), and allowed to adhere for about 18 h. Thereafter, cells were serum-starved and treated with and without the B2RAs at the indicated concentrations for 24 h. At the end of treatments, cells were harvested, rinsed and fixed with ice cold ethanol 95%, for 2 h at 4°C. Fixed cells were rehydrated with 800 µl PBS for 30 min, and then washed again with PBS to remove all traces of ethanol. Cells were treated with RNase for 30 min prior to staining. PI was added to cell suspension at a concentration of 15 µg/ml and incubated overnight at 4°C. PI staining was assessed by flow cytometry using a FACSCanto II flow cytometer (BD Biosciences).

MDA-MB-231 cells [5] = test: Western blot of cell cycle, apoptosis and p38 proteins; assay type: cell-based, human
Description: For western blot analysis, appropriate amount of cell lysates or membrane and nuclear fractions (25–50 µg protein) were denatured, resolved on 9–12% SDS–PAGE and electrotransferred onto PVDF membranes. Blots were blocked using 5% nonfat dry milk and probed using appropriate primary antibodies in blocking buffer overnight at 4°C.

human B2R = target: T1, human B2R (Homo sapiens, UniProt P30411); conditions: living adherent HEK-293T cells transiently transfected with hB2R; means ± s.e.m.; ref [34]; read-out: Binding hB2R-HEK293T IC50; cited from earlier work
T1 construct: expressed in transfected cells; host or cells: HEK-293T
T1 sequence (P30411 1-391): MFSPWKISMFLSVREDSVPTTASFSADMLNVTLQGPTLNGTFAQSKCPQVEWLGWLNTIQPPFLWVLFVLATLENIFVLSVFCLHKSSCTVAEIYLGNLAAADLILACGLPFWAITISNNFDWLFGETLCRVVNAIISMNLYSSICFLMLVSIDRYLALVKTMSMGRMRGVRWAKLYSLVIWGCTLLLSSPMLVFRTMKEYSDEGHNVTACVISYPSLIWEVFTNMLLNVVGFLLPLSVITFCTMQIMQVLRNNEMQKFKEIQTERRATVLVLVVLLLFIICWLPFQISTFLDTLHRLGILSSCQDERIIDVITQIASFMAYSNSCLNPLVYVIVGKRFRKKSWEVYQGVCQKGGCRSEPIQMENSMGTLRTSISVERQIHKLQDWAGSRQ

[6] = target: T2, B2R endogenously expressed in the human de-endothelized umbilical veins (Homo sapiens, UniProt P30411); conditions: antagonist, reduction of BK submaximal contraction; means ± s.e.m.; ref [34]; read-out: Bioassay hUV IC50; cited from earlier work
T2 construct: B2R endogenously expressed in the human de-endothelized umbilical veins (hUV); from tissue; host or cells: human umbilical vein, de-endothelized
T2 sequence (P30411 1-391): T1 sequence (P30411 1-391)

[7] = 24h treatment, whole-cell lysates

CC(=O)Nc1ccc(/C=C/C(=O)NCC(=O)N(C)c2ccc(Cl)c(COc3cccc4ccc(C)nc34)c2Cl)cn1 [FR 173657]
colony formation (antagonist effect) (MDA-MB-231 cells [1]): concentration-responsive clonal repression
combination index (CI) (MDA-MB-231 cells [2]; combination with doxorubicin): below 1
combination index (CI) (MDA-MB-231 cells [2]; combination with paclitaxel): below 1
induction of apoptosis / senescence (MDA-MB-231 cells [3]): underwent apoptosis, but not senescence
cell cycle distribution (MDA-MB-231 cells [4]): tend to induce G0/G1 cell cycle arrest
expression of BAD and p27Kip1 (MDA-MB-231 cells [5]; [7]): increased expression
levels of MAPK and cyclin A (MDA-MB-231 cells [5]; [7]): decreased the levels of MAPK and cyclin A
levels of anti-apoptotic protein XIAP (MDA-MB-231 cells [5]; [7]): appeared to reduce the levels
phosphorylation of p38 (MDA-MB-231 cells [5]; over time): significantly increased the phosphorylation
IC50 (human B2R): 37 ± 1.6 nM
IC50 [6]: 6 ± 0.8 nM
